From US4418060A, “Therapeutically active complexes of tetracyclines” (priority 1971, dated 1983)

Columns and labels:
[1] = background statement; cited from earlier work
[2] = cited from earlier work
[3] = test system: tetracycline-resistant Proteus strains; details: cited from earlier work
[4] = cited from earlier work; remark: listed apart in the source
[5] = per os; cited from earlier work
[6] = cited from earlier work; remark: listed apart in the source
[7] = Toxicity data (LD50) of tetracyclines and Tri-tetracyclines in mice; details: mouse, in vivo, oral
[8] = Chloroform/water distribution quotient; assay type: physicochemical; details: pH=7.4
Text: The solution is filled into ampoules in nitrogen atmosphere.

For `CC(=O)C1=C(O)C2(O)C(=O)c3c(c(C)c4ccc(C)c(O)c4c3O)CC2C(N)C1=O` (stereo not drawn) [chelocardin, 2-decarboxamido-2-acetyl-4-dedimethylamino-4-epiamino-9-methyl-5a,6-anhydrotetracyline], the water solubility [1] is listed as “lower than that of other tetracyclines”, the lipid solubility [2] is listed as “moderately lipid soluble” and the “effect against tetracycline-resistant Proteus” value [3] is listed as “effective”. For the same molecule, the absorption ([4]; peroral) was “low absorption value”.

For `C[C@H]1c2cccc(O)c2C(O)=C2C(=O)[C@]3(O)C(O)=C(C(N)=O)C(=O)[C@@H](N(C)C)[C@@H]3[C@@H](O)[C@@H]21` [doxycycline, 6-deoxy-5-hydroxytetracycline], the excretion ([4]; in vivo) is listed as “with faeces as well” and the gastrointestinal disorders [5] is listed as “gastrointestinal disorders can be observed”.

In the case of `NC(CO)(CO)CO` [tris(hydroxymethyl)aminomethane], the pK [6] is given as 8.33.

With `CN(C)[C@@H]1C(=O)C(C(N)=O)=C(O)[C@@]2(O)C(=O)C3=C(O)c4c(O)cccc4[C@@](C)(O)[C@H]3[C@H](O)[C@@H]12` [OTC, 5-hydroxytetracycline] the LD50 [7] was 2500 mg/kg and the “chloroform/water distribution quotient K” value [8] was 0.008.
